Experimental data reported in ChEMBL document CHEMBL4680214, “Fluorinated derivatives of 2-phenyl-3-hydroxy-4(1H)-quinolinone as tubulin polymerization inhibitors” (Eur J Med Chem, 2020).
Active and inactive are the calls of the source. The calls are words filed in the database; no cut-off is given here.

Assays:
CCRF-CEM [1] = assay: Cell cycle arrest in human CCRF-CEM cells assessed as polyploid cell population at 2 times IC50 measured after 12 hrs by propidium iodide staining based flow cytometry (reference value: 11.3%); type: functional
CCRF-CEM [2] = assay: Cell cycle arrest in human CCRF-CEM cells assessed as increase in Bax expression at 2 times IC50 measured after 24 hrs by Western blot analysis; type: functional, cell-based
CCRF-CEM [3] = assay: Cell cycle arrest in human CCRF-CEM cells assessed as phosphorylation of histone H3 at Ser10 at IC50 measured after 24 hrs by propidium iodide staining based flow cytometry (reference value: 2.0%); type: functional
CCRF-CEM [4] = assay: Cell cycle arrest in human CCRF-CEM cells assessed as accumulation at G0/G1 phase at 5 times IC50 measured after 24 hrs by propidium iodide staining based flow cytometry (reference value: 35.2%); type: functional
CCRF-CEM [5] = assay: Cell cycle arrest in human CCRF-CEM cells assessed as increase in accumulation at G2/M phase at 2 times IC50 measured after 6 to 12 hrs by propidium iodide staining based flow cytometry; type: functional; details: time 6-12 hrs
CCRF-CEM [6] = assay: Cell cycle arrest in human CCRF-CEM cells assessed as decrease in Bcl2 expression at 2 times IC50 measured after 24 hrs by Western blot analysis; type: functional, cell-based
HCT-116 [7] = assay: Cell cycle arrest in human HCT-116 cells assessed as BrU incorporation at 5 times IC50 measured after 24 hrs by propidium iodide/immunostaining based flow cytometry (reference value: 54.0%); type: functional
CCRF-CEM [8] = assay: Cell cycle arrest in human CCRF-CEM cells assessed as accumulation at G0/G1 phase at IC50 measured after 24 hrs by propidium iodide staining based flow cytometry (reference value: 35.2%); type: functional
Tubulin (Homo sapiens) = Tubulin (Homo sapiens) (UniProt P68371+Q9H4B7+P0DPH7+P68366+Q13509+Q71U36+P04350+Q3ZCM7+P07437+P68363+Q9BQE3+Q6PEY2+Q13885+Q9BVA1+Q9BUF5); assay: Induction of microtubule depolymerization in human HCT-116 cells assessed as appearance of abnormal mitotic spindle morphology at 5 times IC50 after 24 hrs by DAPI staining based immunofluorescence analysis; type: cell-based
CCRF-CEM [9] = assay: Cell cycle arrest in human CCRF-CEM cells assessed as BrdU incorporation at IC50 measured after 24 hrs by propidium iodide/immunostaining based flow cytometry (reference value: 60.0%); type: functional
CCRF-CEM [10] = assay: Cell cycle arrest in human CCRF-CEM cells assessed as accumulation at S phase at 5 times IC50 measured after 24 hrs by propidium iodide staining based flow cytometry (reference value: 42.2%); type: functional
CCRF-CEM [11] = assay: Cell cycle arrest in human CCRF-CEM cells assessed as BrU incorporation at IC50 measured after 24 hrs by propidium iodide/immunostaining based flow cytometry (reference value: 52.2%); type: functional
K562 [12] = assay: Cytotoxicity against human K562 cells incubated for 72 hrs by MTS assay; type: functional, cell-based; details: K562, 72 h
K562 [13] = assay: Cytotoxicity against human paclitaxel-resistant K562 cells incubated for 72 hrs by MTS assay; type: functional, cell-based; details: K562, 72 h
CCRF-CEM [14] = assay: Cell cycle arrest in human CCRF-CEM cells assessed as accumulation at G2/M phase at 5 times IC50 measured after 24 hrs by propidium iodide staining based flow cytometry (reference value: 22.6%); type: functional
HCT-116 [15] = assay: Cell cycle arrest in human HCT-116 cells assessed as BrU incorporation at IC50 measured after 24 hrs by propidium iodide/immunostaining based flow cytometry (reference value: 54.0%); type: functional
A549 = assay: Cytotoxicity against human A549 cells incubated for 72 hrs by MTS assay; type: functional, cell-based; details: A549, 72 h
Sus scrofa = species on record: Sus scrofa; assay: Inhibition of porcine brain tubulin polymerization at 10 umol/L measured at 60 secs interval for 30 mins by turbidometric method; details: dose 10.0 µmol/L
HCT-116 [16] = assay: Cell cycle arrest in human HCT-116 cells assessed as phosphorylation of histone H3 at Ser10 at IC50 measured after 24 hrs by propidium iodide staining based flow cytometry (reference value: 3.4%); type: functional
HCT-116 [17] = assay: Cell cycle arrest in human HCT-116 cells assessed as BrdU incorporation at IC50 measured after 24 hrs by propidium iodide/immunostaining based flow cytometry (reference value: 48.6%); type: functional
CCRF-CEM [18] = assay: Cytotoxicity against human daunorubicine-resistant CCRF-CEM cells incubated for 72 hrs by MTS assay; type: functional, cell-based
CCRF-CEM [19] = assay: Cytotoxicity against human CCRF-CEM cells incubated for 72 hrs by MTS assay; type: functional, cell-based
CCRF-CEM [20] = assay: Cell cycle arrest in human CCRF-CEM cells assessed as accumulation at sub-G1 phase at IC50 measured after 24 hrs by propidium iodide staining based flow cytometry (reference value: 2%); type: functional
HCT-116 [21] = assay: Cytotoxicity against p53-deficient human HCT-116 cells incubated for 72 hrs by MTS assay; type: functional, cell-based; details: HCT-116, 72 h
CCRF-CEM [22] = assay: Cell cycle arrest in human CCRF-CEM cells assessed as polyploid cell population at 2 times IC50 measured after 6 hrs by propidium iodide staining based flow cytometry (reference value: 11.3%); type: functional
CCRF-CEM [23] = assay: Cell cycle arrest in human CCRF-CEM cells assessed as BrU incorporation at 5 times IC50 measured after 24 hrs by propidium iodide/immunostaining based flow cytometry (reference value: 52.2%); type: functional
HCT-116 [24] = assay: Cell cycle arrest in human HCT-116 cells assessed as accumulation at G0/G1 phase at 5 times IC50 measured after 24 hrs by propidium iodide staining based flow cytometry (reference value: 35.3%); type: functional
CCRF-CEM [25] = assay: Cell cycle arrest in human CCRF-CEM cells assessed as increase in phosphorylation of histone H3 at Ser10 at 2 times IC50 measured after 6 to 12 hrs by Western blot analysis; type: functional, cell-based; details: time 6-12 hrs
CCRF-CEM [26] = assay: Cell cycle arrest in human CCRF-CEM cells assessed as BrdU incorporation at 5 times IC50 measured after 24 hrs by propidium iodide/immunostaining based flow cytometry (reference value: 60.0%); type: functional
HCT-116 [27] = assay: Cell cycle arrest in human HCT-116 cells assessed as accumulation at S phase at IC50 measured after 24 hrs by propidium iodide staining based flow cytometry (reference value: 37.7%); type: functional
HCT-116 [28] = assay: Cell cycle arrest in human HCT-116 cells assessed as accumulation at G2/M phase at IC50 measured after 24 hrs by propidium iodide staining based flow cytometry (reference value: 27.0%); type: functional
HCT-116 [29] = assay: Cell cycle arrest in human HCT-116 cells assessed as phosphorylation of histone H3 at Ser10 at 5 times IC50 measured after 24 hrs by propidium iodide staining based flow cytometry (reference value: 3.4%); type: functional
HCT-116 [30] = assay: Cell cycle arrest in human HCT-116 cells assessed as accumulation at S phase at 5 times IC50 measured after 24 hrs by propidium iodide staining based flow cytometry (reference value: 37.7%); type: functional
CCRF-CEM [31] = assay: Cell cycle arrest in human CCRF-CEM cells assessed as accumulation at S phase at IC50 measured after 24 hrs by propidium iodide staining based flow cytometry (reference value: 42.2%); type: functional
CCRF-CEM [32] = assay: Cell cycle arrest in human CCRF-CEM cells assessed as accumulation at sub-G1 phase at 5 times IC50 measured after 24 hrs by propidium iodide staining based flow cytometry (reference value: 2%); type: functional

O=c1c(O)c(-c2ccccc2)[nH]c2cc(F)c(Sc3ccccc3)cc12
Activity (CCRF-CEM [1]): 12.4%
Activity (CCRF-CEM [2]): Active
Activity (CCRF-CEM [3]): 9.4%
Activity (CCRF-CEM [4]): 58.2%
Activity (CCRF-CEM [5]): Active
Activity (CCRF-CEM [6]): inactive
Activity (HCT-116 [7]): 63.9%
Activity (CCRF-CEM [8]): 1.8%
Activity (Tubulin (Homo sapiens)): Active
Activity (CCRF-CEM [9]): 74.2%
Activity (CCRF-CEM [10]): 21.6%
Activity (CCRF-CEM [11]): 67.4%
IC50 (K562 [12]): 1.3 µM
IC50 (K562 [13]): 2.9 µM
Activity (CCRF-CEM [14]): 20.2%
Activity (HCT-116 [15]): 65.4%
IC50 (A549): 3.6 µM
inhibition (Sus scrofa): Active
Activity (HCT-116 [16]): 6.2%
Activity (HCT-116 [17]): 42.1%
IC50 (CCRF-CEM [18]): 3.7 µM
IC50 (CCRF-CEM [19]): 3.3 µM
Activity (CCRF-CEM [20]): 5.8%
IC50 (HCT-116 [21]): 4 µM
Activity (CCRF-CEM [22]): 10.5%
Activity (CCRF-CEM [23]): 11.4%
Activity (HCT-116 [24]): 2.7%
Activity (CCRF-CEM [25]): Active
Activity (CCRF-CEM [26]): 18.7%
Activity (HCT-116 [27]): 33.5%
Activity (HCT-116 [28]): 33.2%
Activity (HCT-116 [29]): 15.5%
Activity (HCT-116 [30]): 33.2%
Activity (CCRF-CEM [31]): 56.7%
Activity (CCRF-CEM [32]): 29.7%
